# In PubChem BioAssay AID1963985 (Molecular Pharmacology Branch, DTP, NCI, 2024):
# System: 252836-082-R-J2-PDC tumor spheroids, viability
# Assay: Anticancer human tumor 252836-082-R-J2-PDC patient-derived head and neck squamous cell carcinoma cell line growth inhibition [PI3K]
# Details: spheroids with HUVEC and MSC; for viability, T/C: stronger effect = lower value
# Procedure, shortened: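 Three cell types, namely tumor cells, endothelial cells and mesenchymal stem cells, formed each spheroid. Combinations with four PI3K inhibitors were screened at clinically achievable concentrations decreasing by half-log, and spheroid viability was recorded.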
# [1] = curve of first compound, second compound 0.0316 µM
# [2] = curve of first compound, second compound 0.1 µM
# [3] = curve of first compound, second compound 0.316 µM
# [4] = curve of first compound, second compound 1 µM
# [5] = second compound 0.0316 µM, first compound 0.0316 µM
# [6] = second compound 0.0316 µM, first compound 0.1 µM
# [7] = second compound 0.1 µM, first compound 0.0316 µM
# [8] = second compound 0.1 µM, first compound 0.1 µM
# [9] = second compound 0.316 µM, first compound 0.0316 µM
# [10] = second compound 0.316 µM, first compound 0.1 µM
# [11] = second compound 1 µM, first compound 0.0316 µM
# [12] = second compound 1 µM, first compound 0.1 µM
# 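Note: spheroids exposed to agents for seven days before readout.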
# 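Throughout, for viability, T/C: percent of vehicle DMSO control viability so 100% = untreated growth.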
smiles,measurement,setting,value
CC(=O)c1c(C)c2cnc(Nc3ccc(N4CCNCC4)cn3)nc2n(C2CCCC2)c1=O + CC(Nc1ncnc2nc[nH]c12)c1cc2cccc(Cl)c2c(=O)n1-c1ccccc1,IC50,[1],> 100 nM
same,IC50,[2],> 100 nM
same,IC50,[3],> 100 nM
same,IC50,[4],> 100 nM
same,IC50,"curve of first compound, second compound 3.16 µM",> 100 nM
same,IC50,"curve of first compound, second compound 10 µM",> 100 nM
same,"viability, T/C","second compound 0.0316 µM, first compound 0.000316 µM",99.4%
same,"viability, T/C","second compound 0.0316 µM, first compound 0.001 µM",92.6%
same,"viability, T/C","second compound 0.0316 µM, first compound 0.00316 µM",93%
same,"viability, T/C","second compound 0.0316 µM, first compound 0.01 µM",89.1%
same,"viability, T/C",[5],91.8%
same,"viability, T/C",[6],93.2%
same,"viability, T/C","second compound 0.1 µM, first compound 0.000316 µM",105%
same,"viability, T/C","second compound 0.1 µM, first compound 0.001 µM",89.6%
same,"viability, T/C","second compound 0.1 µM, first compound 0.00316 µM",76.6%
same,"viability, T/C","second compound 0.1 µM, first compound 0.01 µM",83.3%
same,"viability, T/C",[7],83%
same,"viability, T/C",[8],75.4%
same,"viability, T/C","second compound 0.316 µM, first compound 0.000316 µM",114%
same,"viability, T/C","second compound 0.316 µM, first compound 0.001 µM",91.4%
same,"viability, T/C","second compound 0.316 µM, first compound 0.00316 µM",86.9%
same,"viability, T/C","second compound 0.316 µM, first compound 0.01 µM",93.7%
same,"viability, T/C",[9],88.7%
same,"viability, T/C",[10],96.6%
same,"viability, T/C","second compound 1 µM, first compound 0.000316 µM",81.9%
same,"viability, T/C","second compound 1 µM, first compound 0.001 µM",72.4%
same,"viability, T/C","second compound 1 µM, first compound 0.00316 µM",76.8%
same,"viability, T/C","second compound 1 µM, first compound 0.01 µM",93.9%
same,"viability, T/C",[11],79.8%
same,"viability, T/C",[12],79.2%
same,"viability, T/C","second compound 3.16 µM, first compound 0.000316 µM",91.6%
same,"viability, T/C","second compound 3.16 µM, first compound 0.001 µM",87.9%
same,"viability, T/C","second compound 3.16 µM, first compound 0.00316 µM",66.1%
same,"viability, T/C","second compound 3.16 µM, first compound 0.01 µM",74.2%
same,"viability, T/C","second compound 3.16 µM, first compound 0.0316 µM",73.7%
same,"viability, T/C","second compound 3.16 µM, first compound 0.1 µM",71.6%
same,"viability, T/C","second compound 10 µM, first compound 0.000316 µM",57.5%
same,"viability, T/C","second compound 10 µM, first compound 0.001 µM",56.3%
same,"viability, T/C","second compound 10 µM, first compound 0.00316 µM",69.2%
same,"viability, T/C","second compound 10 µM, first compound 0.01 µM",61.1%
same,"viability, T/C","second compound 10 µM, first compound 0.0316 µM",71.4%
same,"viability, T/C","second compound 10 µM, first compound 0.1 µM",60.6%
CC1(C)CCC(Nc2ncc(C(F)(F)F)c(-c3c[nH]c4c(P(C)(C)=O)c(C#N)ccc34)n2)CN1 (centres undefined) + COc1c(OCCCN2CCOCC2)ccc2c3n(c(=NC(=O)c4cnc(N)nc4)nc12)CCN3,IC50,"curve of first compound, second compound 0.00316 µM",< 31.6 nM
same,IC50,"curve of first compound, second compound 0.01 µM",< 31.6 nM
same,IC50,[1],< 31.6 nM
same,IC50,[2],< 31.6 nM
same,IC50,[3],< 31.6 nM
same,IC50,[4],< 31.6 nM
same,"viability, T/C","second compound 0.00316 µM, first compound 0.0316 µM",30%
same,"viability, T/C","second compound 0.00316 µM, first compound 0.1 µM",25.4%
same,"viability, T/C","second compound 0.00316 µM, first compound 0.316 µM",25.2%
same,"viability, T/C","second compound 0.00316 µM, first compound 1 µM",28.7%
same,"viability, T/C","second compound 0.00316 µM, first compound 3.16 µM",34.5%
same,"viability, T/C","second compound 0.00316 µM, first compound 10 µM",4.59%
same,"viability, T/C","second compound 0.01 µM, first compound 0.0316 µM",24.9%
same,"viability, T/C","second compound 0.01 µM, first compound 0.1 µM",24.2%
same,"viability, T/C","second compound 0.01 µM, first compound 0.316 µM",25.5%
same,"viability, T/C","second compound 0.01 µM, first compound 1 µM",22.8%
same,"viability, T/C","second compound 0.01 µM, first compound 3.16 µM",26.4%
same,"viability, T/C","second compound 0.01 µM, first compound 10 µM",3.95%
same,"viability, T/C",[5],22%
same,"viability, T/C",[6],22.4%
same,"viability, T/C","second compound 0.0316 µM, first compound 0.316 µM",22.7%
same,"viability, T/C","second compound 0.0316 µM, first compound 1 µM",19.3%
same,"viability, T/C","second compound 0.0316 µM, first compound 3.16 µM",22.3%
same,"viability, T/C","second compound 0.0316 µM, first compound 10 µM",2.09%
same,"viability, T/C",[7],15.1%
same,"viability, T/C",[8],15.4%
same,"viability, T/C","second compound 0.1 µM, first compound 0.316 µM",17.4%
same,"viability, T/C","second compound 0.1 µM, first compound 1 µM",14.4%
same,"viability, T/C","second compound 0.1 µM, first compound 3.16 µM",18.4%
same,"viability, T/C","second compound 0.1 µM, first compound 10 µM",1.25%
same,"viability, T/C",[9],8.82%
same,"viability, T/C",[10],8.24%
same,"viability, T/C","second compound 0.316 µM, first compound 0.316 µM",8.82%
same,"viability, T/C","second compound 0.316 µM, first compound 1 µM",8.38%
same,"viability, T/C","second compound 0.316 µM, first compound 3.16 µM",8.08%
same,"viability, T/C","second compound 0.316 µM, first compound 10 µM",0.63%
same,"viability, T/C",[11],2.41%
same,"viability, T/C",[12],2.58%
same,"viability, T/C","second compound 1 µM, first compound 0.316 µM",2.51%
same,"viability, T/C","second compound 1 µM, first compound 1 µM",3.28%
same,"viability, T/C","second compound 1 µM, first compound 3.16 µM",2.74%
same,"viability, T/C","second compound 1 µM, first compound 10 µM",0.56%
C#Cc1c(F)ccc2cc(O)cc(-c3ncc4c(N5CC6CCC(C5)N6)nc(OCC56CCCN5CC(F)C6)nc4c3F)c12 (centres undefined),"viability, T/C",compound 0.0316 µM,89.5% [middle of 4 runs]
same,"viability, T/C",compound 1 µM,87.9% [middle of 4 runs]
same,"viability, T/C",compound 3.16 µM,83.4% [middle of 4 runs]
same,"viability, T/C",compound 10 µM,67.8% [middle of 4 runs]
same,IC50,curve of compound,> 10000 nM
